The structures appear in SMILES notation.

T1 sequence (P09382 whole entry): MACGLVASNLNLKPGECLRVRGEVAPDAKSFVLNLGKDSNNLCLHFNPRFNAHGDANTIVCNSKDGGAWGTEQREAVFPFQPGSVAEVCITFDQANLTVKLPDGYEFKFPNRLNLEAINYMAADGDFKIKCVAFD

The assay has as its target T1, Gal-1 (Homo sapiens, UniProt P09382).
T1 construct: made in house; host or cells: E. coli BL21(DE3)
Put plainly: Pull-down assay with immobilized protein and LSM libraries. The format is binding. Particulars: H12 library; 1:1 binding assumed; read-out: Surface mapping KD (apparent). How it is done: Pull-down assays with immobilized test proteins and foldameric LSM libraries were carried out. Proteins were equilibrated with LSM probes, and equilibrium bound fractions (FB) were determined from the unbound fractions measured by HPLC-MS methods. Hits were corrected with background binding of the resin. The protocol allowed all binding events to equilibrate irrespective of affinity, specificity, and binding kinetics. This was essential to judge overall druggability and promiscuity. Importantly, the concentration of protein and the total concentration of foldameric LSMs were equimolar, which minimized competition between the probes. This experimental setup approximated independent binding of individual library members. Results were visualized as heat maps of dissociation constants (Fig. 3).
Pull-down assay and data analysis
Pull-down assay. LSM sublibraries were screened separately as previously described.(2) Experiments were performed in the following buffers: (i) 20 mM pH 7.4 HEPES, 150 mM NaCl, 5 mM CaCl2 for CaM; (ii) 50 mM pH 7.4 HEPES, 150 mM NaCl, 1 mM TCEP, 1 mM CaCl2 for S100 proteins; (iii) 20 mM pH 7.4 HEPES, 150 mM NaCl, 1 mM TCEP for Gal-1 and (iv) 20 mM pH 7.4 HEPES, 150 mM NaCl for RecQ-WH. Assays were performed in paper filter spin cups (Thermo Scientific) with sample volumes of 100 µl. Hexahistidine-tagged proteins were immobilized on previously washed Co-NTA resin (TALON, Takara Bio USA, Inc., Mountain View, CA) in 64 µM final concentration. LSM sublibrary was added, in which each of the 64 library members were used at a concentration of 1 µM. Samples were incubated at room temperature for 30 min with shaking at 100 rpm. Then, samples were centrifuged at 1000 rpm for 2 min and washed with 100 µl pull-down buffer to remove unbound compounds.
The control experiments were performed using the same compounds and the resin but without the immobilized protein. In case of competitive assays, competitor peptides were added to LSM sublibrary samples in 200 µM final concentration. In the case of Gal-1, lactose (competitor) was used in a concentration of 10 mM. Experiments were performed at least twice. Mean […]
LC-MS methods and parameters. HPLC/ESI-MS analysis was used to characterize the samples from the pull-down assay. LC-MS analysis was performed with a Thermo Scientific Dionex UltiMate 3000 HPLC system interfaced to an LTQ ion trap mass spectrometer (Thermo Electron Corp., San Jose, CA, USA). Samples were injected onto an Aeris Widepore XB-C18 (250 x 4.6 mm) analytical HPLC column using gradient elution 5-80 % solution B during 25 minutes. For pull-down samples, eluent composition was 0.1% acetic acid in distilled water (Solution A) and 0.1% acetic acid in acetonitrile (solution B). Mass spectra were acquired in full scan mode from 200 to 2000 m/z range. For overlapping peaks, selective reaction monitoring (SRM) was […]
MS data analysis. Thermo Xcalibur 2.2 software was used for peak identification and integration. The majority of the foldameric fragments could be resolved independently via HPLC-MS/MS measurements based on molecular weight, MS fragmentation pattern and retention time. Peaks of some foldamers with β3-hIle or β3-hLeu in position R2 could not be resolved, these were integrated and averaged. In the processing method, each sample component was associated to a chromatographic peak based on previously identified mass (m/z) and retention time (ref (2) and Table S7-10). Using ICIS peak detection algorithm, the general detection and integration criteria were: smoothing points: 5, baseline window: 80, area noise factor: 5, peak noise factor: 10. Using these processing setups, all raw data files were reprocessed together and analyzed. Errors in peak identification during the automatic processing were corrected manually.
Calculation of the discussed parameters
1. Bound fractions (FB.) were calculated from the HPLC-MS intensity loss of the LSM probes compared to the control where no protein was immobilized to the resin: […]
As for `NC(=O)[C@H]1CCC[C@@H]1NC(=O)[C@H]1CCC[C@@H]1NC(=O)C[C@H](Cc1ccccc1)NC(=O)[C@H]1CCC[C@@H]1NC(=O)[C@H]1CCC[C@@H]1NC(=O)C[C@H](CCC(=O)O)NC(=O)[C@H]1CCC[C@@H]1NC(=O)[C@H]1CCC[C@@H]1N` [H12 EF], the Kd stood at 245 µM.

On to `CC[C@H](C)[C@@H](CC(=O)N[C@H]1CCC[C@@H]1C(=O)N[C@H]1CCC[C@@H]1C(N)=O)NC(=O)[C@H]1CCC[C@@H]1NC(=O)[C@H]1CCC[C@@H]1NC(=O)C[C@H](CCC(=O)O)NC(=O)[C@H]1CCC[C@@H]1NC(=O)[C@H]1CCC[C@@H]1N` [H12 EI], for which the Kd came out at 244 µM.

As for `NCCCC[C@@H](CC(=O)N[C@H]1CCC[C@@H]1C(=O)N[C@H]1CCC[C@@H]1C(N)=O)NC(=O)[C@H]1CCC[C@@H]1NC(=O)[C@H]1CCC[C@@H]1NC(=O)C[C@H](CCC(=O)O)NC(=O)[C@H]1CCC[C@@H]1NC(=O)[C@H]1CCC[C@@H]1N` [H12 EK], the Kd is 200 µM.

For the compound `CC(C)C[C@@H](CC(=O)N[C@H]1CCC[C@@H]1C(=O)N[C@H]1CCC[C@@H]1C(N)=O)NC(=O)[C@H]1CCC[C@@H]1NC(=O)[C@H]1CCC[C@@H]1NC(=O)C[C@H](CCC(=O)O)NC(=O)[C@H]1CCC[C@@H]1NC(=O)[C@H]1CCC[C@@H]1N` [H12 EL], the Kd was found to be 244 µM.

For the compound `CSCC[C@@H](CC(=O)N[C@H]1CCC[C@@H]1C(=O)N[C@H]1CCC[C@@H]1C(N)=O)NC(=O)[C@H]1CCC[C@@H]1NC(=O)[C@H]1CCC[C@@H]1NC(=O)C[C@H](CCC(=O)O)NC(=O)[C@H]1CCC[C@@H]1NC(=O)[C@H]1CCC[C@@H]1N` [H12 EM], the Kd stood at 251 µM.

With `NC(=O)CC[C@@H](CC(=O)N[C@H]1CCC[C@@H]1C(=O)N[C@H]1CCC[C@@H]1C(N)=O)NC(=O)[C@H]1CCC[C@@H]1NC(=O)[C@H]1CCC[C@@H]1NC(=O)C[C@H](CCC(=O)O)NC(=O)[C@H]1CCC[C@@H]1NC(=O)[C@H]1CCC[C@@H]1N` [H12 EQ], the Kd worked out at 236 µM.

Regarding `NC(=O)[C@H]1CCC[C@@H]1NC(=O)[C@H]1CCC[C@@H]1NC(=O)C[C@H](CO)NC(=O)[C@H]1CCC[C@@H]1NC(=O)[C@H]1CCC[C@@H]1NC(=O)C[C@H](CCC(=O)O)NC(=O)[C@H]1CCC[C@@H]1NC(=O)[C@H]1CCC[C@@H]1N` [H12 ES], the Kd is 289 µM.

On to `C[C@@H](O)[C@@H](CC(=O)N[C@H]1CCC[C@@H]1C(=O)N[C@H]1CCC[C@@H]1C(N)=O)NC(=O)[C@H]1CCC[C@@H]1NC(=O)[C@H]1CCC[C@@H]1NC(=O)C[C@H](CCC(=O)O)NC(=O)[C@H]1CCC[C@@H]1NC(=O)[C@H]1CCC[C@@H]1N` [H12 ET], for which the Kd was found to be 372 µM.

For `CC(C)[C@@H](CC(=O)N[C@H]1CCC[C@@H]1C(=O)N[C@H]1CCC[C@@H]1C(N)=O)NC(=O)[C@H]1CCC[C@@H]1NC(=O)[C@H]1CCC[C@@H]1NC(=O)C[C@H](CCC(=O)O)NC(=O)[C@H]1CCC[C@@H]1NC(=O)[C@H]1CCC[C@@H]1N` [H12 EV], the Kd came out at 316 µM.

As for `NC(=O)[C@H]1CCC[C@@H]1NC(=O)[C@H]1CCC[C@@H]1NC(=O)C[C@H](Cc1c[nH]c2ccccc12)NC(=O)[C@H]1CCC[C@@H]1NC(=O)[C@H]1CCC[C@@H]1NC(=O)C[C@H](CCC(=O)O)NC(=O)[C@H]1CCC[C@@H]1NC(=O)[C@H]1CCC[C@@H]1N` [H12 EW], the Kd was 235 µM.

With `NC(=O)[C@H]1CCC[C@@H]1NC(=O)[C@H]1CCC[C@@H]1NC(=O)C[C@H](Cc1ccc(O)cc1)NC(=O)[C@H]1CCC[C@@H]1NC(=O)[C@H]1CCC[C@@H]1NC(=O)C[C@H](CCC(=O)O)NC(=O)[C@H]1CCC[C@@H]1NC(=O)[C@H]1CCC[C@@H]1N` [H12 EY], the Kd was found to be 260 µM.

As for `CC[C@H](C)[C@@H](CC(=O)N[C@H]1CCC[C@@H]1C(=O)N[C@H]1CCC[C@@H]1C(=O)N[C@@H](CC(=O)O)CC(=O)N[C@H]1CCC[C@@H]1C(=O)N[C@H]1CCC[C@@H]1C(N)=O)NC(=O)[C@H]1CCC[C@@H]1NC(=O)[C@H]1CCC[C@@H]1N` [H12 ID], the Kd amounted to 462 µM.

Consider `CC[C@H](C)[C@@H](CC(=O)N[C@H]1CCC[C@@H]1C(=O)N[C@H]1CCC[C@@H]1C(=O)N[C@@H](CC(N)=O)CC(=O)N[C@H]1CCC[C@@H]1C(=O)N[C@H]1CCC[C@@H]1C(N)=O)NC(=O)[C@H]1CCC[C@@H]1NC(=O)[C@H]1CCC[C@@H]1N` [H12 IN], for which the Kd stood at 401 µM.

Consider `CC[C@H](C)[C@@H](CC(=O)N[C@H]1CCC[C@@H]1C(=O)N[C@H]1CCC[C@@H]1C(=O)N[C@@H](CCC(N)=O)CC(=O)N[C@H]1CCC[C@@H]1C(=O)N[C@H]1CCC[C@@H]1C(N)=O)NC(=O)[C@H]1CCC[C@@H]1NC(=O)[C@H]1CCC[C@@H]1N` [H12 IQ], for which the Kd turned out to be 446 µM.

Consider `NCCCC[C@@H](CC(=O)N[C@H]1CCC[C@@H]1C(=O)N[C@H]1CCC[C@@H]1C(=O)N[C@@H](CCC(=O)O)CC(=O)N[C@H]1CCC[C@@H]1C(=O)N[C@H]1CCC[C@@H]1C(N)=O)NC(=O)[C@H]1CCC[C@@H]1NC(=O)[C@H]1CCC[C@@H]1N` [H12 KE], for which the Kd was 212 µM.

Regarding `CC(C)C[C@@H](CC(=O)N[C@H]1CCC[C@@H]1C(=O)N[C@H]1CCC[C@@H]1C(=O)N[C@@H](CC(=O)O)CC(=O)N[C@H]1CCC[C@@H]1C(=O)N[C@H]1CCC[C@@H]1C(N)=O)NC(=O)[C@H]1CCC[C@@H]1NC(=O)[C@H]1CCC[C@@H]1N` [H12 LD], the Kd came to 470 µM.

`CC(C)C[C@@H](CC(=O)N[C@H]1CCC[C@@H]1C(=O)N[C@H]1CCC[C@@H]1C(=O)N[C@@H](CCC(=O)O)CC(=O)N[C@H]1CCC[C@@H]1C(=O)N[C@H]1CCC[C@@H]1C(N)=O)NC(=O)[C@H]1CCC[C@@H]1NC(=O)[C@H]1CCC[C@@H]1N` [H12 LE]: the Kd worked out at 335 µM.

Take `NCCCC[C@@H](CC(=O)N[C@H]1CCC[C@@H]1C(=O)N[C@H]1CCC[C@@H]1C(N)=O)NC(=O)[C@H]1CCC[C@@H]1NC(=O)[C@H]1CCC[C@@H]1NC(=O)C[C@H](CC(N)=O)NC(=O)[C@H]1CCC[C@@H]1NC(=O)[C@H]1CCC[C@@H]1N` [H12 NK]: the Kd is 430 µM.

As for `N=C(N)NCCC[C@@H](CC(=O)N[C@H]1CCC[C@@H]1C(=O)N[C@H]1CCC[C@@H]1C(=O)N[C@@H](CC(=O)O)CC(=O)N[C@H]1CCC[C@@H]1C(=O)N[C@H]1CCC[C@@H]1C(N)=O)NC(=O)[C@H]1CCC[C@@H]1NC(=O)[C@H]1CCC[C@@H]1N` [H12 RD], the Kd was 250 µM.

With `N=C(N)NCCC[C@@H](CC(=O)N[C@H]1CCC[C@@H]1C(=O)N[C@H]1CCC[C@@H]1C(=O)N[C@@H](CO)CC(=O)N[C@H]1CCC[C@@H]1C(=O)N[C@H]1CCC[C@@H]1C(N)=O)NC(=O)[C@H]1CCC[C@@H]1NC(=O)[C@H]1CCC[C@@H]1N` [H12 RS], the Kd is 242 µM.

Turning to `CC(C)[C@@H](CC(=O)N[C@H]1CCC[C@@H]1C(=O)N[C@H]1CCC[C@@H]1C(=O)N[C@@H](CC(=O)O)CC(=O)N[C@H]1CCC[C@@H]1C(=O)N[C@H]1CCC[C@@H]1C(N)=O)NC(=O)[C@H]1CCC[C@@H]1NC(=O)[C@H]1CCC[C@@H]1N` [H12 VD], the Kd is 480 µM.

On to `CC(C)[C@@H](CC(=O)N[C@H]1CCC[C@@H]1C(=O)N[C@H]1CCC[C@@H]1C(=O)N[C@@H](CCC(=O)O)CC(=O)N[C@H]1CCC[C@@H]1C(=O)N[C@H]1CCC[C@@H]1C(N)=O)NC(=O)[C@H]1CCC[C@@H]1NC(=O)[C@H]1CCC[C@@H]1N` [H12 VE], for which the Kd was 469 µM.

For the compound `CC(C)[C@@H](CC(=O)N[C@H]1CCC[C@@H]1C(=O)N[C@H]1CCC[C@@H]1C(=O)N[C@@H](CC(N)=O)CC(=O)N[C@H]1CCC[C@@H]1C(=O)N[C@H]1CCC[C@@H]1C(N)=O)NC(=O)[C@H]1CCC[C@@H]1NC(=O)[C@H]1CCC[C@@H]1N` [H12 VN], the Kd was determined as 497 µM.

Regarding `CC(C)[C@@H](CC(=O)N[C@H]1CCC[C@@H]1C(=O)N[C@H]1CCC[C@@H]1C(=O)N[C@@H](CO)CC(=O)N[C@H]1CCC[C@@H]1C(=O)N[C@H]1CCC[C@@H]1C(N)=O)NC(=O)[C@H]1CCC[C@@H]1NC(=O)[C@H]1CCC[C@@H]1N` [H12 VS], the Kd came to 408 µM.

These data come from article PMC8162404, “Proteomimetic surface fragments distinguish targets by function” (Chemical Science, 2020).
